Measurements taken from ChEMBL document CHEMBL5725589, “Heterocyclic compounds as PI3K-γ inhibitors” (2018).

Assays:
[1] = target: Tyrosine-protein kinase JAK1 (Homo sapiens, UniProt P23458); test: In Vitro JAK Kinase Assay: Compounds herein were tested for inhibitory activity of JAK targets according to the following in vitro assay described in Park et al., Analytical Biochemistry 1999, 269, 94-104. The catalytic domains of human JAK1 (a.a. 837-1142), JAK2 (a.a. 828-1132) and JAK3 (a.a. 781-1124) were expressed using baculovirus in insect cells and purified. The catalytic activity of JAK1 …
Chain of Tyrosine-protein kinase JAK1 (P23458 whole entry, the tested form may be a part, canonical isoform): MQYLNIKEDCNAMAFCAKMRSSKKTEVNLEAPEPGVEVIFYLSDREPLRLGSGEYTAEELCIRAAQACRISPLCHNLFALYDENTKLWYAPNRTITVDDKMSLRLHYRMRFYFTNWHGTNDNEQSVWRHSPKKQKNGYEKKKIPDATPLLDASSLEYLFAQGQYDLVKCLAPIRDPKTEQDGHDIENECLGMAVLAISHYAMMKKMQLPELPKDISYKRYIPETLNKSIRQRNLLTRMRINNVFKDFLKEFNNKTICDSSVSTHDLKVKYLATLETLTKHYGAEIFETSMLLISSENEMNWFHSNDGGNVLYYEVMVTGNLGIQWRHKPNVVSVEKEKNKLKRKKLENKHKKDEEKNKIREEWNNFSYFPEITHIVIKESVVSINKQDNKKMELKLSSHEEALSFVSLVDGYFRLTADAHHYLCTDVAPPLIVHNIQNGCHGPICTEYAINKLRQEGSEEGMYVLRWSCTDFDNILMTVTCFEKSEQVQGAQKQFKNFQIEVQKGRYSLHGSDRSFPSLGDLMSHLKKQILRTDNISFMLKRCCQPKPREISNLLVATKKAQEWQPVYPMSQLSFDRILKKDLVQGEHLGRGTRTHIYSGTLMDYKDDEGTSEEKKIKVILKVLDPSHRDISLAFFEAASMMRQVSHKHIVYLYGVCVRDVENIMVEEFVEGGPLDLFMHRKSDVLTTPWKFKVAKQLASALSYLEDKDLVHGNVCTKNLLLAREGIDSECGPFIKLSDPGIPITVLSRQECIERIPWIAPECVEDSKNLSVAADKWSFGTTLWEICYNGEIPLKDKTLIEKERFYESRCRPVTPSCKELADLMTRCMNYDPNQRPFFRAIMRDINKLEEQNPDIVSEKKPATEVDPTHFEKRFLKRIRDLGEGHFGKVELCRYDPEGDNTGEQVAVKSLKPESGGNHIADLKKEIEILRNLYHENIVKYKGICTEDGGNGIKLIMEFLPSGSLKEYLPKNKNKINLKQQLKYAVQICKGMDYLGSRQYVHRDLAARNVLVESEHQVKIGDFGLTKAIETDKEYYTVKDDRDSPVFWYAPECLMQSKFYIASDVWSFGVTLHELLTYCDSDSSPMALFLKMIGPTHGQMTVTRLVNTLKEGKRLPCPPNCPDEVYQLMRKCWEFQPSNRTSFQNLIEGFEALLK

[2] = target: T1, Phosphatidylinositol 4,5-bisphosphate 3-kinase catalytic subunit delta isoform (Homo sapiens, UniProt O00329); test: PI3Kδ (p110δ/p85α) Recombinant Human Protein was purchased from Eurofins (St Charles, Mo.). […] The final concentration of DMSO in the assay was 2%. […] ATP, 3.4 nM PI3Kδ. […] The final concentration of SPA beads is 1.0 mg/mL.
T1 sequence (O00329 whole entry): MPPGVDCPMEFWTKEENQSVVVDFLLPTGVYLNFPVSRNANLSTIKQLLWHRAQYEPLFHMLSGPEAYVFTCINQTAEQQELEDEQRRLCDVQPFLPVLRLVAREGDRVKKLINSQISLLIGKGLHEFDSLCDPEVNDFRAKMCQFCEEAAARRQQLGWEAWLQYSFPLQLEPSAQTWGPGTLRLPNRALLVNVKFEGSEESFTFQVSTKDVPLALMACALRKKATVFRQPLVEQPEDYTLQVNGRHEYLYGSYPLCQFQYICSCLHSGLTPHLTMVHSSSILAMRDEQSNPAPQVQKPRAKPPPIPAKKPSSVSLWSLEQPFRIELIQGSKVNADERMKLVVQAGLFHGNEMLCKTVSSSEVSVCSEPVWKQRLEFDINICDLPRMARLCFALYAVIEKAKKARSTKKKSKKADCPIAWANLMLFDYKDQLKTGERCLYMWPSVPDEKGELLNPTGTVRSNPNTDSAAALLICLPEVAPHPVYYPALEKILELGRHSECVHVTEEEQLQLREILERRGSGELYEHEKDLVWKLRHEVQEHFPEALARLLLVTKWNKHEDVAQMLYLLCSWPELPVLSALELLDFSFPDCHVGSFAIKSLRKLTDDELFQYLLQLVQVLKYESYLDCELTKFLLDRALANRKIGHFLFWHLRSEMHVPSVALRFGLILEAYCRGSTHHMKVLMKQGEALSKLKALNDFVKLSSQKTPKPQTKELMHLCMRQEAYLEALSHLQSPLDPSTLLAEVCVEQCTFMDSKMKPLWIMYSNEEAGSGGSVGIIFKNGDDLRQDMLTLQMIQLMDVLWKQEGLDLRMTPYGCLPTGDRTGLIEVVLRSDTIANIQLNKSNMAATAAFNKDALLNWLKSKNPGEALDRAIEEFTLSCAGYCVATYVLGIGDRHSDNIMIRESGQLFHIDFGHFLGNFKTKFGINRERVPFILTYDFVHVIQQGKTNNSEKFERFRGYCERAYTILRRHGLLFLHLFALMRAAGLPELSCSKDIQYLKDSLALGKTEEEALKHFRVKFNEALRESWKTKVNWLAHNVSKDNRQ

[3] = target: Phosphatidylinositol 4,5-bisphosphate 3-kinase catalytic subunit gamma isoform (Homo sapiens, UniProt P48736); test: PI3Kγ (p110γ) Recombinant Human Protein was purchased from Life technology (Grand Island, N.Y.). […] The final concentration of DMSO in the assay was 2%. […] ATP, 13 nM PI3Kγ. […] The final concentration of SPA beads is 1.0 mg/mL.
Chain of Phosphatidylinositol 4,5-bisphosphate 3-kinase catalytic subunit gamma isoform (P48736 whole entry, canonical isoform): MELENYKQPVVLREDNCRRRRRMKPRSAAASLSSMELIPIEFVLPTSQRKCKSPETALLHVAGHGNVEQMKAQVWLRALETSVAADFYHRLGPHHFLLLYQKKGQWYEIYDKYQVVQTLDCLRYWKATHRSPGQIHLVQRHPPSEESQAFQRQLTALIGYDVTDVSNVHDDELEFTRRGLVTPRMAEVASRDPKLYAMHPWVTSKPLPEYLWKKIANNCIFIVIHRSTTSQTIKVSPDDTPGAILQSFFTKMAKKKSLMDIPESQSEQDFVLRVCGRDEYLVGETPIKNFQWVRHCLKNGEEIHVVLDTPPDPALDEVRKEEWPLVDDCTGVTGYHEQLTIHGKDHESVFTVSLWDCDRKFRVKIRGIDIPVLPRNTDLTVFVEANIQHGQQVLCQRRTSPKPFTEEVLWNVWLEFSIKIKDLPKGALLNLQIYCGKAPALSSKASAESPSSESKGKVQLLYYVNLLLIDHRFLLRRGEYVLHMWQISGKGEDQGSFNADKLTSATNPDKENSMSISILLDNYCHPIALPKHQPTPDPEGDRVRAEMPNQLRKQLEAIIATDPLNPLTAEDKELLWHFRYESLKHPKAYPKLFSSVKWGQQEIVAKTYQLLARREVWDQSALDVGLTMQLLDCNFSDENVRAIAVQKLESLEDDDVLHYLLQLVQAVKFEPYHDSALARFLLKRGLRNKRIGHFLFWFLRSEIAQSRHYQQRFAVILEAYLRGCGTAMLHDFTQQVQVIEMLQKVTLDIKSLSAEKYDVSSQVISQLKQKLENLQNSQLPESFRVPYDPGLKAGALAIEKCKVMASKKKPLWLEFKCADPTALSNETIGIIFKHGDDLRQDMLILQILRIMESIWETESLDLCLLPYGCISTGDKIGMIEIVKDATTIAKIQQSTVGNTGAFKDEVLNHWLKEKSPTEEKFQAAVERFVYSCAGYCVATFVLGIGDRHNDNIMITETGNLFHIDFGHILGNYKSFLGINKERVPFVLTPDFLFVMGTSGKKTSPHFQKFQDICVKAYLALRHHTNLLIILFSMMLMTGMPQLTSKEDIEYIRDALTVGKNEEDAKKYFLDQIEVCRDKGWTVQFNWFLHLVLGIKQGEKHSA

Compound	IC50 [1] [nM]	IC50 [2] [nM]	IC50 [3] [nM]
N#CCC(C1CCN(c2nc3cccnc3o2)C1)n1cc(-c2ncnc3[nH]ccc23)cn1 (centres undefined)	< 100	–	–
CCOc1c(C(C)NC(=O)c2c(N)nn3cccnc23)cc(Cl)c2cn(C)nc12 (centres undefined)	–	< 500	< 500
Cc1cc(C(C)NC(=O)c2c(N)nn3cccnc23)c(-c2ccccc2)c2[nH]nc(C)c12 (centres undefined)	–	< 2000	< 500
CC(NC(=O)c1c(N)nn2cccnc12)c1cc(Cl)c2c(Br)n[nH]c2c1-c1ccccc1 (centres undefined)	–	< 2000	< 100
CC(NC(=O)c1c(N)nn2cccnc12)c1cc(C#N)c2cncn2c1-c1ccccc1 (centres undefined)	–	< 500	< 500
CC(NC(=O)c1c(N)nn2cccnc12)c1cc(Cl)c2cn(Cc3ccn(C)n3)nc2c1-c1ccccc1 (centres undefined)	–	< 2000	< 500
CC(NC(=O)c1c(N)nn2cccnc12)c1cc(Cl)c2cn[nH]c2c1-c1ccccc1 (centres undefined)	–	< 500	< 100
C[C@@H](O)c1nc2cnc3ccsc3c2n1[C@H]1CC[C@H](CC#N)OC1	< 500	–	–
Cc1n[nH]c2c(-c3ccccc3)c(C(C)NC(=O)c3c(N)nn4cccnc34)cc(Cl)c12 (centres undefined)	–	< 500	< 100
CCCC(NC(=O)c1c(N)nn2cccnc12)c1cc(Cl)c2cncn2c1N1CCS(=O)(=O)CC1 (centres undefined)	–	< 100	< 100
CC(NC(=O)c1c(N)nn2cccnc12)c1cc(Cl)c2cncn2c1-c1ccccc1 (centres undefined)	–	< 100	< 100
C[C@@H](O)CNCc1cc(OC2CCN([C@H]3C[C@](CC#N)(n4cc(-c5ncnc6[nH]ccc56)cn4)C3)CC2)nc(C(F)(F)F)c1	< 100	–	–
CCOc1c(C(C)NC(=O)c2c(N)nn3cccnc23)cc(Cl)c2cnn(C)c12 (centres undefined)	–	< 100	< 100
CCOc1c(C(C)NC(=O)c2c(N)nn3cccnc23)cc(Cl)c2cn(CC)nc12 (centres undefined)	–	< 2000	< 500

Results, then the compound that gave them:

IC50 [1] [nM]	IC50 [2] [nM]	IC50 [3] [nM]	Compound
< 100	–	–	N#CCC1(n2cc(-c3ncnc4[nH]ccc34)cn2)CN(C2CCN(C(=O)Nc3ccc(F)cc3C(F)(F)F)CC2)C1
< 100	–	–	N#CCC1(n2cc(-c3ncnc4[nH]ccc34)cn2)CN(C2CCN(C(=O)c3ccnc(C(F)(F)F)n3)CC2)C1
< 100	–	–	N#CC[C@]1(n2cc(-c3ncnc4[nH]ccc34)cn2)C[C@H](N2CCC(Oc3cc(CN4CC(O)C4)cc(C(F)(F)F)n3)CC2)C1
< 100	–	–	N#CC[C@]1(n2cc(-c3ncnc4[nH]ccc34)cn2)C[C@H](N2CCN(C(=O)c3ccnc(C(F)(F)F)n3)CC2)C1
< 100	–	–	CCNCc1cc(O[C@H]2CC[C@@H](N3CC(CC#N)(n4cc(-c5ncnc6[nH]ccc56)cn4)C3)CC2)nc(C(F)(F)F)c1
–	< 500	< 500	CC(NC(=O)c1c(N)nn2cccnc12)c1cc(Cl)c2cn(CC(=O)N3CCOCC3)nc2c1-c1ccccc1 (centres undefined)
< 100	–	–	N#CC[C@]1(n2cc(-c3ncnc4[nH]ccc34)cn2)C[C@H](N2CCC(Oc3cc(CN4CCC[C@@H]4CO)cc(C(F)(F)F)n3)CC2)C1
< 100	–	–	N#CCC(CN1CCN(C(=O)c2ccc(C#N)cc2F)CC1)n1ccc(-c2ncnc3[nH]ccc23)c1 (centres undefined)
–	< 100	< 100	CC(NC(=O)c1c(N)nn2cccnc12)c1cc(Cl)c2cnn(CCN3CCOCC3)c2c1-c1ccccc1 (centres undefined)
< 100	–	–	N#CCC1(n2cc(-c3ncnc4[nH]ccc34)cn2)CN([C@H]2CC[C@@H](Oc3cc(CCO)nc(C(F)(F)F)n3)CC2)C1
< 100	–	–	N#CC[C@]1(n2cc(-c3ncnc4[nH]ccc34)cn2)C[C@H](N2CCC(Oc3cc(CCO)cc(C(F)(F)F)n3)CC2)C1
< 100	–	–	CC(C)(O)c1cc(O[C@H]2CC[C@@H](N3CC(CC#N)(n4cc(-c5ncnc6[nH]ccc56)cn4)C3)CC2)nc(C(F)(F)F)c1
–	< 100	< 100	Cc1ncc2c(Cl)cc(C(C)NC(=O)c3c(N)nn4cccnc34)c(-c3cccc(F)c3)n12 (centres undefined)
< 100	–	–	C[C@@H](CO)NCc1cc(OC2CCN([C@H]3C[C@](CC#N)(n4cc(-c5ncnc6[nH]ccc56)cn4)C3)CC2)nc(C(F)(F)F)c1
–	< 2000	< 100	Cc1cc(C(C)NC(=O)c2c(N)nn3cccnc23)c(-c2cccc(F)c2)n2c(C)ncc12 (centres undefined)
< 100	–	–	C[C@H](NC(=O)c1cc(F)c(N2CC(CC#N)(n3cc(-c4ncnc5[nH]ccc45)cn3)C2)cc1F)C(F)(F)F
< 100	–	–	N#CC[C@]1(n2cc(-c3ncnc4[nH]ccc34)cn2)C[C@H](N2CCC(Oc3cc(CN4CCC[C@H]4CO)cc(C(F)(F)F)n3)CC2)C1
< 100	–	–	N#CCC1(n2cc(-c3ncnc4[nH]ccc34)cn2)CN([C@H]2CC[C@@H](Oc3cc(CN4CC[C@@H](O)C4)cc(C(F)(F)F)n3)CC2)C1
< 100	–	–	N#CCC1(n2cc(-c3ncnc4[nH]ccc34)cn2)CN([C@H]2CC[C@@H](Oc3cc(CN4CC[C@H](O)C4)cc(C(F)(F)F)n3)CC2)C1 (single isomer, unassigned)
< 100	–	–	N#CCC1(n2cc(-c3ncnc4[nH]ccc34)cn2)CN(C2CCN(C(=O)c3ccnc(C(F)(F)F)c3F)CC2)C1 [ITACITINIB]
